# Measured values reported in patent publication US9073911B2, “Pyrazole derivatives” (HOFFMANN-LA ROCHE INC., priority 2011, dated 2015).
# Structures can show the parent of a compound that is named as a salt.
# What was measured:
# rat TAAR1 = rat TAAR1 (Rattus norvegicus (Rat), UniProt Q923Y9); experiment: Radioligand binding assay on rat TAAR1; settings: for Ki: membranes of HEK-293 cells stably expressing rat TAAR1, second value of cell mouse/rat
# Description: (§1) Construction of TAAR Expression Plasmids and Stably Transfected Cell Lines
# (§2) For the construction of expression plasmids the coding sequences of human, rat and mouse TAAR 1 were amplified from genomic DNA essentially as described by Lindemann et al.. The Expand High Fidelity PCR System (Roche Diagnostics) was used with 1.5 mM Mg^2+ and purified PCR products were cloned into pCR2.1-TOPO cloning vector (Invitrogen) following the instructions of the manufacturer. PCR products were subcloned into the pIRESneo2 vector (BD Clontech, Palo Alto, Calif.), and expression vectors were sequence verified before introduction in cell lines.
# (§3) HEK293 cells (ATCC # CRL-1573) were cultured essentially as described by Lindemann et al. (2005). For the generation of stably transfected cell lines HEK293 cells were transfected with the pIRESneo2 expression plasmids containing the TAAR coding sequences (described above) with Lipofectamine 2000 (Invitrogen) according to the instructions of the manufacturer, and 24 hrs post transfection the culture medium was supplemented with 1 mg/ml G418 (Sigma, Buchs, Switzerland). After a culture period of about 10 d clones were isolated, expanded and tested for responsiveness to trace amines (all compounds purchased from Sigma) with the cAMP Biotrak Enzyme immunoassay (EIA) System (Amersham) following the non-acetylation EIA procedure provided by the manufacturer.
# Radioligand Binding Assay on rat TAAR1
# (§4) Membrane Preparation and Radioligand Binding.
# HEK-293 cells stably expressing rat TAAR1 were maintained at 37° C. and 5% CO2 in DMEM high glucose medium, containing fetal calf serum (10%, heat inactivated for 30 min at 56° C.), penicillin/streptomycin (1%), and 375 μg/ml geneticin (Gibco). Cells were released from culture flasks using trypsin/EDTA, harvested, washed twice with ice-cold PBS (without Ca^2+ and Mg^2+), pelleted at 1,000 rpm for 5 min at 4° C., frozen and stored at −80° C. Frozen pellets were suspended in 20 ml HEPES-NaOH (20 mM, pH 7.4) containing 10 mM EDTA and homogenized with a Polytron (PT 6000, Kinematica) at 14,000 rpm for 20 s. The homogenate was centrifuged at 48,000×g for 30 min at 4° C. Subsequently, the supernatant was removed and discarded, and the pellet resuspended in 20 ml HEPES-NaOH (20 mM, pH 7.4) containing 0.1 mM EDTA using the Polytron (20 s at 14,000 rpm). This procedure was repeated and the final pellet resuspended in HEPES-NaOH containing 0.1 mM EDTA and homogenized using the Polytron. Typically, aliquots of 2 ml membrane portions were stored at −80° C. With each new membrane batch the dissociation constant (Kd) was determined via a saturation curve.
# Nonspecific binding was defined as the amount of ^3-[H]-(S)-4-[(ethyl-phenyl-amino)-methyl]-4,5-dihydro-oxazol-2-ylamine bound in the presence of 10 μM unlabeled ligand. All compounds were tested at a broad range of concentrations (10 pM to 10 μM) in duplicates. […] The 96 deep well plates were incubated for 1 hr at 4° C. Incubations were terminated by rapid filtration through Unifilter-96 plates (Packard Instrument Company) and glass filters GF/C (Perkin Elmer) presoaked for 1 hr in polyethylenimine (0.3%) and washed 3 times with 1 ml of cold binding buffer. After addition of 45 μl of Microscint 40 (PerkinElmer) the Unifilter-96 plate was sealed and after 1 hr the ratioactivity counted using a TopCount Microplate Scintillation Counter (Packard Instrument Company).
# mouse TAAR1 = mouse TAAR1 (Mus musculus (Mouse), UniProt Q923Y8); experiment: Radioligand binding assay on mouse TAAR1; settings: for Ki: membranes of HEK-293 cells stably expressing mouse TAAR1, first value of cell mouse/rat
# Sequence of mouse TAAR1 (Q923Y8 whole entry): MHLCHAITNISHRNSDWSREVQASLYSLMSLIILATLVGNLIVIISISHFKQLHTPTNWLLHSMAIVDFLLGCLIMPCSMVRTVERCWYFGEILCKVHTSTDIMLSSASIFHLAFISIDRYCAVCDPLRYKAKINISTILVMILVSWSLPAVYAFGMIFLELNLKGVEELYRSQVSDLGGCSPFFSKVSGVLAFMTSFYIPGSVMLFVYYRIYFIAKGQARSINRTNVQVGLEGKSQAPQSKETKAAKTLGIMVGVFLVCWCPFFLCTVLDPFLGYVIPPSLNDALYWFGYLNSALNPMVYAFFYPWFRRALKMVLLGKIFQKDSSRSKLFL
# Description: as §1, §2, §3
# Radioligand Binding Assay on Mouse TAAR1
# as §4
# HEK-293 cells stably expressing mouse TAAR1 were maintained at 37° C. and 5% CO2 in DMEM high glucose medium, containing fetal calf serum (10%, heat inactivated for 30 min at 56° C.), penicillin/streptomycin (1%), and 375 μg/ml geneticin (Gibco). Cells were released from culture flasks using trypsin/EDTA, harvested, washed twice with ice-cold PBS (without Ca^2+ and Mg^2+), pelleted at 1,000 rpm for 5 min at 4° C., frozen and stored at −80° C. Frozen pellets were suspended in 20 ml HEPES-NaOH (20 mM, pH 7.4) containing 10 mM EDTA and homogenized with a Polytron (PT 6000, Kinematica) at 14,000 rpm for 20 s. The homogenate was centrifuged at 48,000×g for 30 min at 4° C. Subsequently, the supernatant was removed and discarded, and the pellet resuspended in 20 ml HEPES-NaOH (20 mM, pH 7.4) containing 0.1 mM EDTA using the Polytron (20 s at 14,000 rpm). This procedure was repeated and the final pellet resuspended in HEPES-NaOH containing 0.1 mM EDTA and homogenized using the Polytron. Typically, aliquots of 2 ml membrane portions were stored at −80° C. With each new membrane batch the dissociation constant (Kd) was determined via a saturation curve. The TAAR1 radioligand ^3[H]—(S)-4-[(ethyl-phenyl-amino)-methyl]-4,5-dihydro-oxazol-2-ylamine (described in WO 2008/098857) was used at a concentration equal to the calculated Kd value, that was usually around 0.7 nM, resulting in the binding of approximately 0.5% of the radioligand and a specific binding representing approximately 70% of the total binding. Nonspecific binding was defined as the amount of ^3[H]—(S)-4-[(ethyl-phenyl-amino)-methyl]-4,5-dihydro-oxazol-2-ylamine bound in the presence of 10 μM unlabeled ligand. All compounds were tested at a broad range of concentrations ([…]) in duplicates. […] The 96 deep well plates were incubated for 1 hr at 4° C. Incubations were terminated by rapid filtration through Unifilter-96 plates (Packard Instrument Company) and glass filters GF/C (Perkin Elmer) presoaked for 1 hr in polyethylenimine (0.3%) and washed 3 times with 1 ml of cold binding buffer. After addition of 45 μl of Microscint 40 (PerkinElmer) the Unifilter-96 plate was sealed and after 1 hr the radioactivity counted using a TopCount Microplate Scintillation Counter (Packard Instrument Company).
# Sequence of rat TAAR1 (Q923Y9 whole entry): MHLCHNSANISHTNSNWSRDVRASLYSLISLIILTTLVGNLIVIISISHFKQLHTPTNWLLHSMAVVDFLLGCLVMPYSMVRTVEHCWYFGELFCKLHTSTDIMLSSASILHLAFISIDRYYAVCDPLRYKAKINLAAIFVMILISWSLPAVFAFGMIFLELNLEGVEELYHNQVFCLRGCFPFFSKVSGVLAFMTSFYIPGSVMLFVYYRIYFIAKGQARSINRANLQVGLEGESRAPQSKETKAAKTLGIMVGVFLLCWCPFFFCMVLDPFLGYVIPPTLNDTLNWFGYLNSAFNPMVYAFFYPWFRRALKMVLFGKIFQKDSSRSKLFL
"Kd (rat TAAR1; rat TAAR1 membranes, saturation curve, usual value, read-out: calculated Kd value of the TAAR1 radioligand) [nM]","Kd (mouse TAAR1; mouse TAAR1 membranes, saturation curve, usual value, read-out: calculated Kd value of the TAAR1 radioligand) [nM]",Structure (SMILES),Ki (rat TAAR1) [µM],Ki (mouse TAAR1) [µM]
–,–,"N#Cc1cccc(-c2cc(C(=O)Nc3ccc([C@@H]4CCCNC4)cc3)[nH]n2)c1 [Example 36, (S)-3-(3-Cyanophenyl)-N-(4-(piperidin-3-yl)phenyl)-1H-pyrazole-5-carboxamide hydrochloride]",0.0138,0.0014
–,–,"N#Cc1cccc(-c2cc(C(=O)Nc3ccc([C@H]4CCCNC4)cc3)[nH]n2)c1 [Example 37, (R)-3-(3-Cyanophenyl)-N-(4-(piperidin-3-yl)phenyl)-1H-pyrazole-5-carboxamide hydrochloride]",0.0027,0.0017
–,–,"N#Cc1cc(-c2cc(C(=O)Nc3ccc([C@H]4CNCCO4)cc3)[nH]n2)ccc1F [Example 39, (S)-5-(3-Cyano-4-fluorophenyl)-N-(4-(morpholin-2-yl)phenyl)-1H-pyrazole-3-carboxamide hydrochloride]",0.003,0.0014
–,–,"O=C(Nc1ccc([C@H]2CNCCO2)cc1)c1cc(-c2cccc(OC(F)F)c2)n[nH]1 [Example 40, (S)-3-(3-(Difluoromethoxy)phenyl)-N-(4-(morpholin-2-yl)phenyl)-1H-pyrazole-5-carboxamide hydrochloride]",0.0013,0.0005
–,–,"CCn1nc(C(=O)Nc2ccc([C@H]3CNCCO3)cc2)cc1-c1cccc(OC(F)F)c1 [Example 41, (S)-5-(3-(Difluoromethoxy)phenyl)-1-ethyl-N-(4-(morpholin-2-yl)phenyl)-1H-pyrazole-3-carboxamide hydrochloride]",0.0016,0.0025
–,–,"CCn1nc(-c2cccc(OC(F)F)c2)cc1C(=O)Nc1ccc([C@H]2CNCCO2)cc1 [Example 42, (S)-3-(3-(Difluoromethoxy)phenyl)-1-ethyl-N-(4-(morpholin-2-yl)phenyl)-1H-pyrazole-5-carboxamide hydrochloride]",0.0021,0.001
–,–,"N#Cc1cccc(-c2cc(C(=O)Nc3ccc([C@H]4CNCCO4)cc3)[nH]n2)c1F [Example 43, (S)-3-(3-Cyano-2-fluorophenyl)-N-(4-(morpholin-2-yl)phenyl)-1H-pyrazole-5-carboxamide hydrochloride]",0.011,0.0016
–,–,"Cn1nc(-c2cccc(OC(F)F)c2)cc1C(=O)Nc1ccc([C@H]2CNCCO2)cc1 [Example 44, (S)-3-(3-(Difluoromethoxy)phenyl)-1-methyl-N-(4-(morpholin-2-yl)phenyl)-1H-pyrazole-5-carboxamide hydrochloride]",0.0262,0.0663
–,–,"O=C(Nc1ccc([C@H]2CNCCO2)cc1)c1ccn(-c2ccc(OC(F)F)cc2)n1 [Example 45, (S)-1-(4-(Difluoromethoxy)phenyl)-N-(4-(morpholin-2-yl)phenyl)-1H-pyrazole-3-carboxamide hydrochloride]",0.0014,0.0018
–,–,"O=C(Nc1ccc([C@@H]2CNCCO2)cc1)c1ccn(-c2ccc(OC(F)F)cc2)n1 [Example 46, (R)-1-(4-(Difluoromethoxy)phenyl)-N-(4-(morpholin-2-yl)phenyl)-1H-pyrazole-3-carboxamide hydrochloride]",0.0006,0.004
–,–,"O=C(Nc1ccc([C@H]2CNCCO2)cc1)c1ccn(-c2ncc(C(F)(F)F)cn2)n1 [Example 47, (S)—N-(4-(Morpholin-2-yl)phenyl)-1-(5-(trifluoromethyl)pyrimidin-2-yl)-1H-pyrazole-3-carboxamide hydrochloride]",0.0196,0.0198
–,–,"O=C(Nc1ccc([C@H]2CNCCO2)cc1)c1ccn(-c2cncc(Cl)n2)n1 [Example 48, (S)-1-(6-Chloropyrazin-2-yl)-N-(4-(morpholin-2-yl)phenyl)-1H-pyrazole-3-carboxamide hydrochloride]",0.0118,0.0086
–,–,"O=C(Nc1ccc([C@H]2CNCCO2)cc1)c1ccn(-c2nccnc2Cl)n1 [Example 49, (S)-1-(3-Chloropyrazin-2-yl)-N-(4-(morpholin-2-yl)phenyl)-1H-pyrazole-3-carboxamide hydrochloride]",0.139,0.0142
–,–,"O=C(Nc1ccc([C@H]2CNCCO2)cc1)c1ccn(-c2cnc(Cl)cn2)n1 [Example 50, (S)-1-(5-Chloropyrazin-2-yl)-N-(4-(morpholin-2-yl)phenyl)-1H-pyrazole-3-carboxamide hydrochloride]",0.0091,0.0027
–,–,"O=C(Nc1ccc([C@H]2CNCCO2)cc1)c1ccn(-c2cc(C(F)(F)F)ncn2)n1 [Example 51, (S)—N-(4-(Morpholin-2-yl)phenyl)-1-(6-(trifluoromethyl)pyrimidin-4-yl)-1H-pyrazole-3-carboxamide hydrochloride]",0.0071,0.0142
–,–,"O=C(Nc1ccc([C@H]2CNCCO2)cc1)c1ccn(-c2cncc(C(F)(F)F)n2)n1 [Example 52, (S)—N-(4-(Morpholin-2-yl)phenyl)-1-(6-(trifluoromethyl)pyrazin-2-yl)-1H-pyrazole-3-carboxamide hydrochloride]",0.0074,0.0084
–,–,"N#Cc1cnc(-n2ccc(C(=O)Nc3ccc([C@H]4CNCCO4)cc3)n2)cn1 [Example 53, (S)-1-(5-Cyanopyrazin-2-yl)-N-(4-(morpholin-2-yl)phenyl)-1H-pyrazole-3-carboxamide hydrochloride]",0.0298,0.011
–,–,"O=C(Nc1ccc([C@H]2CNCCO2)cc1)c1ccn(-c2ccnc(C(F)(F)F)n2)n1 [Example 54, (S)—N-(4-(Morpholin-2-yl)phenyl)-1-(2-(trifluoromethyl)pyrimidin-4-yl)-1H-pyrazole-3-carboxamide hydrochloride]",0.0088,0.0065
~2.3,~0.7,"CCN(C[C@H]1COC(N)=N1)c1ccccc1 [^3[H]—(S)-4-[(ethyl-phenyl-amino)-methyl]-4,5-dihydro-oxazol-2-ylamine, reference compound]",–,–
